Laboratory results published in PubChem BioAssay (NCI).
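Compound exposure: 48 hours, 5 concentrations, 96-well plates. GI50: concentration for 50% inhibition of growth. Definition used: TGI = concentration required for complete inhibition of growth.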

Columns and labels:
Assay in all cases: NCI anticancer screen, dose series, 48 h
[1] = system: A498 renal
[2] = system: HCT-15 colon
[3] = system: OVCAR-4 ovarian
[4] = system: SN12C renal
[5] = system: OVCAR-3 ovarian
[6] = system: SW-620 colon
[7] = system: OVCAR-8 ovarian
[8] = system: SF-268 CNS
[9] = system: BT-549 breast
[10] = system: MDA-MB-231 breast

SMILES | GI50 [1] [µM] | TGI [1] [µM] | GI50 [2] [µM] | TGI [2] [µM] | GI50 [3] [µM] | TGI [3] [µM] | GI50 [4] [µM] | TGI [4] [µM] | GI50 [5] [µM] | TGI [5] [µM] | GI50 [6] [µM] | TGI [6] [µM] | GI50 [7] [µM] | TGI [7] [µM] | GI50 [8] [µM] | TGI [8] [µM] | GI50 [9] [µM] | TGI [9] [µM] | GI50 [10] [µM] | TGI [10] [µM]
CCC(C(=O)[O-])C(=O)[O-].CCC(C(=O)[O-])C(=O)[O-].N.N.NCCCCCN.[Pt+4].[Pt+4] | > 100 | > 100 | > 100 | > 100 | > 100 | > 100 | 15 | 87.3 | > 100 | > 100 | > 100 | > 100 | > 100 | > 100 | > 100 | > 100 | – | – | – | –
NC(=O)c1csc(C2C=CC(CO)O2)n1 (configuration not stated) | – | > 100 | – | > 100 | – | > 100 | – | > 100 | – | > 10 | – | > 100 | – | > 100 | – | > 100 | – | – | – | –
C=C(CN(CC(=C)C(=O)c1ccccc1)C(C)(C)C)C(=O)c1ccccc1 | – | 32.9 | – | – | – | 29.3 | – | 32.5 | – | 37.5 | – | 9.91 | – | 67.9 | – | 17 | – | – | – | –
C=CCNC1=C(C(=O)OCC)C(=O)CO1 | – | > 100 | – | > 100 | – | > 100 | – | > 100 | – | > 100 | – | > 100 | – | > 100 | – | > 100 | – | – | – | –
FC(F)(F)c1ccc(C=NC23CC4CC(CC(C4)C2)C3)cc1 | – | > 100 | – | > 100 | – | > 100 | – | > 100 | – | > 100 | – | > 100 | – | > 100 | – | > 100 | – | – | – | –
Cc1c(O)c(=O)ccn1C1OC(CO)C(O)C1O (configuration not stated) | – | > 100 | – | > 100 | – | > 100 | – | > 100 | – | > 100 | – | > 100 | – | > 100 | – | > 100 | – | – | – | –
Cc1ccc(S(=O)(=O)CNC(=S)CCCC(=S)NCS(=O)(=O)c2ccc(C)cc2)cc1 | – | > 100 | – | > 100 | – | > 100 | – | > 100 | – | > 100 | – | > 100 | – | > 100 | – | > 100 | – | – | – | –
O=C(CC/C(C/C(=N/O)c1ccc(F)cc1)=N/O)N(Cc1ccccc1)Cc1ccccc1 | – | > 100 | – | > 100 | – | > 100 | – | > 100 | – | > 100 | – | > 100 | – | > 100 | – | > 100 | – | – | – | –
CC(=O)O[C@H]1[C@@H]2[C@@H]3[C@@H](C[C@H]1C)[C@@H](C)CO[C@@]1(C)CC/C=C(/C)C[C@@H]2O[C@@H]31 | – | > 100 | – | > 100 | – | > 100 | – | > 100 | – | > 100 | – | > 100 | – | > 100 | – | > 100 | – | – | – | –
Cc1ccc(-c2ccc(Nc3c4ccccc4nc4ccccc34)cc2)cn1 | – | – | – | 17.2 | – | – | – | 15.3 | – | 6.41 | – | 14.9 | – | > 100 | – | > 100 | – | – | – | –
COc1cc2c3c(n(CCCN4CCN(C)CC4)c(=O)c2cc1OC)-c1cc2c(cc1C3=O)OCO2 | – | – | 16 | 36.1 | 4.17 | 18.6 | 11.4 | 24.1 | 15.3 | 30.1 | 11.2 | 54.1 | 18.1 | 46.5 | 11.9 | 41.8 | 80.8 | > 100 | 15.3 | 32.4
CCCCCCCCCCCCCC/C(C(=O)OC)=C(/O)C(=O)OCC | – | > 100 | – | 36.3 | – | > 100 | – | > 100 | – | > 100 | – | > 100 | – | > 100 | – | 64.3 | – | – | – | –
Cn1ccc(=Nc2ccc(NC(=O)c3ccc(N=c4ccn(C)c5ccc([N+](=O)[O-])cc45)cc3)cc2)cc1 | > 100 | > 100 | > 100 | > 100 | – | – | 5.09 | > 100 | 15.2 | 78.7 | 8.6 | > 100 | > 100 | > 100 | 4.37 | 98.2 | 71.5 | > 100 | 6.82 | > 100
C/C(=N\NC(=O)CC(=O)Nc1ccc(Cl)cc1)c1cc2ccccc2oc1=O | – | – | – | > 100 | – | – | – | > 100 | – | > 100 | – | > 100 | – | > 100 | – | – | – | – | – | –
O=C(O)c1cc2ccccc2c(N=Nc2c([N+](=O)[O-])cc([N+](=O)[O-])cc2S(=O)(=O)O)c1O | – | – | – | > 100 | – | > 100 | – | > 100 | – | > 100 | – | > 100 | – | > 100 | – | > 100 | – | > 100 | – | > 100
CC1C=C(OC(=O)c2ccccc2)C(=O)C(n2cc(F)c(=O)n(C(=O)c3ccccc3)c2=O)O1 (configuration not stated) | – | – | – | > 100 | – | > 100 | – | > 100 | – | 56.4 | – | 96.6 | – | > 100 | – | – | – | – | – | –
Cn1cc2c(n1)c(N/N=C/c1ccccc1)nn1nnnc21 | – | > 100 | – | > 100 | – | > 100 | – | > 100 | – | > 100 | – | > 100 | – | > 100 | – | > 100 | – | – | – | –
